From patent US9943504B2, “Arginine methyltransferase inhibitors and uses thereof” (Epizyme, Inc., priority 2013, dated 2018)

Target: T1, human PRMT8 (Homo sapiens, UniProt Q9NR22)
T1 construct: Full-length human PRMT8 (NM_019854.4) isoform 1 transcript clone; made in house; host or cells: E. coli BL21(DE3) Gold
Assay: PRMT8 Biochemical Assay
Conditions: biochemical evaluation, peptide substrate
Source text: S-adenosylmethionine (SAM), S-adenosylhomocysteine (SAH), bicine, Tween20, dimethylsulfoxide (DMSO), bovine skin gelatin (BSG), isopropyl-β-D-thiogalactopyranoside (IPTG), and Tris(2-carboxyethyl)phosphine hydrochloride solution (TCEP) were purchased from Sigma-Aldrich at the highest level of purity possible. ^3H-SAM was purchase from American Radiolabeled Chemicals with a specific activity of 80 Ci/mmol. 384-well streptavidin Flashplates were purchased from PerkinElmer.
Peptide representative of human histone H4 residues 31-45 was synthesized with an N-terminal linker-affinity tag motif and a C-terminal amide cap by 21st Century Biochemicals. The peptide was purified by high-performance liquid chromatography (HPLC) to greater than 95% purity and confirmed by liquid chromatography mass spectrometry (LC-MS). The sequence was Biot-Ahx-[…]-amide (SEQ ID NO.: 8).
The resulting construct encodes an N-terminal GST tag and a thrombin cleavage sequence ([…] […]
The assays were all performed in a buffer consisting of 20 mM Bicine (pH=7.6), 1 mM TCEP, 0.005% BSG, and 0.002% Tween 20, prepared on the day of use. […] The plates were then read in a PerkinElmer TopCount plate reader to measure the quantity of ^3H-labeled peptide bound to the Flashplate surface, measured as disintegrations per minute (dpm) or alternatively, referred to as counts per minute (cpm). […]

T1 sequence (Q9NR22 whole entry, canonical isoform): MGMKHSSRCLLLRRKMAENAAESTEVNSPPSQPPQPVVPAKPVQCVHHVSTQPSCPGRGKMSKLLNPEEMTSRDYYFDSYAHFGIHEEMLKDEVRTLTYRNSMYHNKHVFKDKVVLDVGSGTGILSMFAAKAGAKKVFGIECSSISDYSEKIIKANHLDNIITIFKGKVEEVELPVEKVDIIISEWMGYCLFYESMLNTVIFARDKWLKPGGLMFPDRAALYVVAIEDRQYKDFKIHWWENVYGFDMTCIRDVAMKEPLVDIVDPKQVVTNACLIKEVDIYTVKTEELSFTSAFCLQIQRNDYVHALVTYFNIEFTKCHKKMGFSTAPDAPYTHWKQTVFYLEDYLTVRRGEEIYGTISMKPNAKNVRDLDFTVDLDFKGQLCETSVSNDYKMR

With `CN(CCN)Cc1n[nH]c2cccc(OCc3ccccc3)c12` [Compound 1] as the molecule, how does the IC50 read?
The IC50 was 101 to 1000 nM.
